Like-named read-outs stand apart in the source and are kept apart here.
How the values were obtained:
in vitro [1] = assay: in vitro; design: species or system HB2, CCD841; settings: human, hek293 cells
in vitro [2] = assay: in vitro; design: species or system CCD841, HEK293; settings: human, hb2 cells, read-out: HB-2 Cells Viability (%)
NUDT7 = molecular target: T1, NUDT7 (Homo sapiens, UniProt P0C024); design: Intact protein LC/MS covalent labelling, fragments in pools of five, 200 uM each, 4 °C; settings: 24 h, 4 °C, pool of five; 200 µM; covalent
T1 construct: residues 14-235, E. coli, pNIC28-Bsa4, N-terminal His6 tag removed by TEV, construct 26672 Da
T1 sequence (P0C024 14-235): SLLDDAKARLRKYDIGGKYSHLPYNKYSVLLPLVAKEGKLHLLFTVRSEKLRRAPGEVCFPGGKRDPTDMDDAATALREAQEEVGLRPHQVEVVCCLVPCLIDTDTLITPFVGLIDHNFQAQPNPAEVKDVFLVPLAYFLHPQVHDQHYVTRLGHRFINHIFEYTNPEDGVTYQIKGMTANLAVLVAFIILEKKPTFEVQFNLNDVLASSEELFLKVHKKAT

NNMT (hNNMT) = molecular target: T2, NNMT (hNNMT) (Homo sapiens, UniProt P40261); design: Intact protein LC/MS covalent labelling, fragments in pools of five, 200 uM each, 4 °C; settings: 24 h, 4 °C, pool of five; 200 µM; covalent
T2 construct: wild type, N-terminal His6 tag kept (no cleavage described), E. coli, construct 31248 Da
T2 sequence (P40261 1-264): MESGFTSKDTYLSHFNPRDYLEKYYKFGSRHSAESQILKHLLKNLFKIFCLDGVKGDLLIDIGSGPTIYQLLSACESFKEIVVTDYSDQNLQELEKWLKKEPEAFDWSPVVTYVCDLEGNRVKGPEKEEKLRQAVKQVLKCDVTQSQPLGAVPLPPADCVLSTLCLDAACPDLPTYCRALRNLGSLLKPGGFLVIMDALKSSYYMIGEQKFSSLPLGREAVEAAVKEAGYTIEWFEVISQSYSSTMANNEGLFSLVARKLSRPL

BSA = molecular target: T3, BSA (Bos taurus, UniProt P02769); design: Intact protein LC/MS covalent labelling, fragments in pools of five, 200 uM each, 4 °C; settings: 24 h, 4 °C, pool of five; 200 µM; covalent
T3 construct: gene ALB
T3 sequence (P02769 whole entry, the tested form may be a part): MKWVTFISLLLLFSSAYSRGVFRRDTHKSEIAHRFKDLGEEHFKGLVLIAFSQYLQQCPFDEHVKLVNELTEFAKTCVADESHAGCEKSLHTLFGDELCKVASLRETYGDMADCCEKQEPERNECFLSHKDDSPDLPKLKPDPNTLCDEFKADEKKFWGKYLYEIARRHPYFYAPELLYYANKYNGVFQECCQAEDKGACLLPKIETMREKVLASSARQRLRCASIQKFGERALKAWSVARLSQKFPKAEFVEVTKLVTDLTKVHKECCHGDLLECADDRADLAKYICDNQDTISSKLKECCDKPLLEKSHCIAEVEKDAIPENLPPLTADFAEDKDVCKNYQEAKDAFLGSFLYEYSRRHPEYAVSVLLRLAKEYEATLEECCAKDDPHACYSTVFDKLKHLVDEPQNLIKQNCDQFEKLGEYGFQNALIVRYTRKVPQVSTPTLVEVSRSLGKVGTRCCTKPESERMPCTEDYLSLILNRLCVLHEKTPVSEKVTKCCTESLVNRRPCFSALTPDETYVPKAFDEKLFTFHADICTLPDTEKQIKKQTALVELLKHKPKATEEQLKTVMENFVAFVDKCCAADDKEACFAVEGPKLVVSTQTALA

PCAF = molecular target: T4, PCAF (Homo sapiens, UniProt Q92831); design: Intact protein LC/MS covalent labelling, fragments in pools of five, 200 uM each, 4 °C; settings: 24 h, 4 °C, pool of five; 200 µM; covalent
T4 construct: gene KAT2B
T4 sequence (Q92831 whole entry, the tested form may be a part): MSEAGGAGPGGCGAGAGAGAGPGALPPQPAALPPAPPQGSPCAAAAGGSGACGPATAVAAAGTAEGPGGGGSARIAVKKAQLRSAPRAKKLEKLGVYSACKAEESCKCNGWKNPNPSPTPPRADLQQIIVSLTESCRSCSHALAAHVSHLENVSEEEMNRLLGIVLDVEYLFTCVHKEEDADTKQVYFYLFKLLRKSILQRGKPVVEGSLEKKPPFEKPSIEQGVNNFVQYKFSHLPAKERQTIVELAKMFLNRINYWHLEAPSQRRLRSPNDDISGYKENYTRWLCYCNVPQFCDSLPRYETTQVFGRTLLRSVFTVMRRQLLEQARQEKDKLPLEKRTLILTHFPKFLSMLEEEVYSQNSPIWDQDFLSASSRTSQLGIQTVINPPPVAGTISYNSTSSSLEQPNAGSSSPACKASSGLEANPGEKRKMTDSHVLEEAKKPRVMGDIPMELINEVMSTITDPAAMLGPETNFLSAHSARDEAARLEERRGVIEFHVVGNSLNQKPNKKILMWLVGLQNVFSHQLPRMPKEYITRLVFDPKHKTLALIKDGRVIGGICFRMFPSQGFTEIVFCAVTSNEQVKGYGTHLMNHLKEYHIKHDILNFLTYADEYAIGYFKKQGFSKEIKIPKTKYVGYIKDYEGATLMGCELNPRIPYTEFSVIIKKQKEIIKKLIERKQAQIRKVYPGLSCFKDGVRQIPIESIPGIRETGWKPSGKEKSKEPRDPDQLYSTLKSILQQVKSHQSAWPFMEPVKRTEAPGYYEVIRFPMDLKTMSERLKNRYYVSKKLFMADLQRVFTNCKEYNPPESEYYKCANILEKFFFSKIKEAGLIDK

OTUB2 (OTUB2A) = molecular target: T5, OTUB2 (OTUB2A) (Homo sapiens, UniProt Q96DC9); design: Intact protein LC/MS covalent labelling, fragments in pools of five, 200 uM each, 4 °C; settings: 24 h, 4 °C, pool of five; 200 µM; covalent
T5 construct: full length residues 1-234, E. coli BL21(DE3)-R3, His tag removed by TEV, construct 27312 Da
T5 sequence (Q96DC9 1-234): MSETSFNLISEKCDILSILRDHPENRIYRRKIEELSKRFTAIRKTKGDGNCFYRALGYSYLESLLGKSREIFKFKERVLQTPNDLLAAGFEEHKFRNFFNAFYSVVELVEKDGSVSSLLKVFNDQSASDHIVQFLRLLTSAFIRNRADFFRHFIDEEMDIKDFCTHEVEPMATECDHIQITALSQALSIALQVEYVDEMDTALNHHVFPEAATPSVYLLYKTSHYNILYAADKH

in vitro [3] = assay: in vitro; design: species or system HB2, HEK293; settings: human, ccd841 cells

SMILES | viability at 48 h, 10 µM (in vitro [1]) | viability at 48 h, 10 µM (in vitro [2]) | NUDT7 (NUDT7) | NNMT (NNMT (hNNMT)) | BSA (BSA) | PCAF (PCAF) | OTUB2 (OTUB2 (OTUB2A)) | viability at 48 h, 10 µM (in vitro [3])
Cc1ccc([N+](=O)[O-])c(NC(=O)CCl)c1C [PCM-0102511] | 56.3% | 91.5% | 0.15 | 0 | 0 | 0 | 0.07 | 75.4%
O=C(CCl)N1CCCCC1 [PCM-0102514] | 90.8% | 92.8% | 0 | 0 | 0 | 0 | 0 | 88.1%
C=CC(=O)N1CCCCC1c1ncon1 (stereo not shown) [PCM-0102517] | 91.3% | 101% | 0 | 0 | 0 | 0 | 0 | 120%
C=CC(=O)NC1CCC(c2nc(C)no2)CC1 (stereo not shown) [PCM-0102521] | 83% | 101% | 0 | 0 | 0 | 0 | 0.35 | 116%
C=CC(=O)N1CCCC(c2ncc(C(F)(F)F)[nH]2)C1 (stereo not shown) [PCM-0102527] | 109% | 98.6% | 0 | 0 | 0.09 | 0 | 0 | 129%
C=CC(=O)N1CCN(C(=O)Cc2c(C)noc2C)CC1 [PCM-0102531] | 91.3% | 106% | 0 | 0 | 0 | 0 | 0 | 106%
CC(C)c1ccc(NC(=O)CCl)cc1 [PCM-0102532] | 7.1% | 12.7% | 0.18 | 0.68 | 0 | 0 | 0.33 | 40.4%
CNC(=O)NC(=O)CCl [PCM-0102534] | 92.2% | 97.9% | 0 | 0 | 0 | 0 | 0 | 94.3%
C=CC(=O)NNC(=O)c1ccccc1 [PCM-0102541] | 106% | 106% | 0 | 0 | 0 | 0 | 0 | 112%
COC(=O)c1cc(NC(=O)CCl)cn1C [PCM-0102545] | 12.7% | 54.5% | 0 | 0.16 | 0 | 0 | 0.33 | 65.4%
C=CC(=O)Nc1nc(C)cc(C)n1 [PCM-0102547] | 133% | 98.2% | 0.34 | 0 | 0 | 0 | 0 | 100%
C=CC(=O)N1CCC(c2nccn2C)C1 (stereo not shown) [PCM-0102553] | 103% | 99.3% | 0 | 0.11 | 0 | 0 | 0 | 128%
C=CC(=O)N1CCC2(CC1)CCS(=O)(=O)CC2 [PCM-0102559] | 113% | 105% | 0 | 0 | 0.12 | 0 | 0 | 113%
C=CC(=O)N1CC2(CCCC2)c2cc3c(cc2C1C)OCCO3 (stereo not shown) [PCM-0102560] | 116% | 102% | 0 | 0.19 | 0 | 0 | 0 | 110%

From PMC6556873, “Rapid Covalent-Probe Discovery by Electrophile-Fragment Screening” (Journal of the American Chemical Society, 2019)
